Assay [1] concerns pTyr37-H2B upstream of the Hist1 cluster. Nature of the assay: Native ChIP-qPCR with pTyr37-H2B antibody at Hist1 Site I and II in synchronized MEFs. The settings on record: 6.30 hours post-release. The class given is cell-based, mouse. The protocol: FIG. 1A is a diagram illustrating the position of histone genes in mouse Hist1 subcluster 1 showing two pTyr37-H2B binding sites. Starting nucleotide position is shown above. Subclusterl is conserved between human and mouse. FIG. 1B-1D are bar graphs showing Native Chromatin immunoprecipitation (ChIP) (% input DNA) in synchronized MEFs treated with WEE1 inhibitor or untreated and harvested at 0 and 6.30 hours post-release. Native ChIP was performed using pTyr37-H2B or IgG antibodies followed by quantitative PCR using primers corresponding to Site I (FIG. 1B), Site II (FIG. 1C) and control site (FIG. 1D). Data shown are representative of three independent experiments. *p=0.001; **p=0.006. FIG. 1E is bar graph showing ChIP in synchronized MEFs harvested at 0 and 6.30 hours post-release using WEE1 or IgG antibodies followed by quantitative PCR using primers corresponding to Site II. […] FIG. 1F is bar graph showing ChIP in cells transfected with control or WEE1 siRNAs performed using pTyr37-H2B antibodies followed by quantitative PCR using primers corresponding to Site II. […]
As a first step, extensive standardization of pTyr37-H2B antibodies were performed for its usage in ChIP. […] Pellets were resuspended and the resulting DNA was quantified on a NanoDrop spectrophotometer. Extrapolation to the original chromatin volume allowed quantitation of the total chromatin yield. […]
On the technique in general: Real-time PCR tracks product formation cycle by cycle.

Assay [2] has as its system core histone genes located in Hist1 cluster. Nature of the assay: Quantitative RT-PCR of core histone transcripts in synchronized MEFs. The note with it: MK1775 0.625 μM, 14 hr, after 6.30 hours post-release (compare 8.30 hours). The class given is cell-based, mouse.
For a further assay, the system named is 5-hmC levels. Kind of assay: Slot blot of genomic DNA with 5-hmC and 5-mC antibodies. The class given is cell-based. How it is done:
SBC12, T98G and HEK293 cells were treated with WEE1 inhibitor, MK1775 (0.6 μM, 24 hr). Blots were incubated with 5-hmC and 5-mC antibodies.
Genomic DNA was isolated, blotted by slot blot, followed by immunoblotting with 5-hmC and 5-mC antibodies. […] 5-hmC containing plasmid DNA (Zymo research) was used as positive control.

The subject of assay [3] is WEE1 expressing cancer cell lines. The note with it: cited from earlier work.
In assay [4] the test system is cancers and cancer cell lines. The settings on record: cited from earlier work.
For a further assay, the target named is WEE1 (Homo sapiens, UniProt P30291). Kind of assay: Peptide Immunosandwich Assay (PIA) with purified WEE1. The note with it: purified WEE1 protein (100 ng), 5 uM. The class given is biochemical. More on the design: GST; purchased Invitrogen. The protocol: H2B Tyr37-phosphorylation was determined as described in the text.
In brief, Streptavidin coated 96-well plates (R&D systems) were incubated with biotinylated human histone H2B derived peptides […] (SEQ ID NO: 62, Y37 site is underlined). H2B derived phospho-peptide KRSRKESp[…] (SEQ ID NO: 63) was used as positive control. Any unbound areas on the plate were blocked with 3% BSA. Next, purified WEE1 protein (100 ng) prepared in kinase buffer (20 mM HEPES, 225 mM NaCl, 1% Triton X-100, 10% glycerol, phosphatase and protease inhibitors) supplemented with 1 uM ATP and 1 uM MgCl2. After 2 hours of incubation, plates were washed with phosphate buffered saline containing 0.1% Tween 20 (PBST) and reblocked in 3% BSA. The pY37-H2B or pTyr antibodies (at 1:1000 dilution) were added and incubated for 1 hour. Unbound antibodies were washed and HRP-conjugated anti-mouse secondary antibodies (1:5000) were added. The magnitude of phosphorylation was detected using developer solution (OPD tablets, Sigma) and after 20 minutes of incubation, the plates were read at 450 nm.
The Peptide Immunosandwich Assay was first validated using purified WEE1 protein (100 ng) and cancer derived cell lines (50 ug). […] PIA was also validated using cancer derived cells lines MDA-MB231 (low WEE1 activity) and LAPC4 cells (high WEE1 activity). […] As negative controls, H2B peptide alone or WEE1 enzyme alone were used. […]

WEE1, sequence (P30291 whole entry): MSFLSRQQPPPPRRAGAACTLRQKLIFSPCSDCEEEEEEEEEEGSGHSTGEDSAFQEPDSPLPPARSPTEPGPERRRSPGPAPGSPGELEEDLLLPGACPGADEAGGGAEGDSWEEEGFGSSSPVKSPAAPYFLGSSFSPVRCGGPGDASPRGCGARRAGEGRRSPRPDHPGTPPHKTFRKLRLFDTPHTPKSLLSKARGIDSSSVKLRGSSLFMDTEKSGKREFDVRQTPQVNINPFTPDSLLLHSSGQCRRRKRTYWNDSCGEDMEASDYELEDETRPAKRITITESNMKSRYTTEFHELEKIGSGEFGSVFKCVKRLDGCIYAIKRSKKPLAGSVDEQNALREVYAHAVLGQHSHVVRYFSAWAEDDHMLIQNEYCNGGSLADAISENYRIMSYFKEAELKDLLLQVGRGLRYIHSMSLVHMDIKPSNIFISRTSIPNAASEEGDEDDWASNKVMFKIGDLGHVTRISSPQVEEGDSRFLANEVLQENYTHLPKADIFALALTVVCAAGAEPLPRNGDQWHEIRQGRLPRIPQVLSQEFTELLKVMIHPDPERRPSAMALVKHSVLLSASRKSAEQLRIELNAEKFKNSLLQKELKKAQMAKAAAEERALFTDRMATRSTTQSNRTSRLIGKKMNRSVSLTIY

Turning to `C=CCn1c(=O)c2cnc(Nc3ccc(N4CCN(C)CC4)cc3)nc2n1-c1cccc(C(C)(C)O)n1` [MK-1775], the “occurrence of pTyr37-H2B at site I and II” value in assay [1] was “significantly reduced”. In assay [2], the “histone mRNA levels” value was “significant increase”. Also, the 5-hmC levels entry is reported as “remained unchanged” with 5-hmC levels (HEK293 cells, 0.6 μM, 24 hr); “significant upregulation” with 5-hmC levels (SBC12 melanoma derived cell line, 0.6 μM, 24 hr); “significant upregulation” with 5-hmC levels (T98G GBM-derived cells, 0.6 μM, 24 hr); “restored” in the assay on 5-hmC levels (summary statement). The 5-mC levels result in the assay with 5-hmC levels (immunoblotting with 5-mC antibodies, 0.6 μM, 24 hr) is given as “concomitant decrease”. Also, the apoptosis entry in assay [3] was “selectively induces apoptosis”. For the same compound, the “sensitization to DNA damaging agents such as gemcitabine, 5-fluorouracil” value in assay [4] is given as “able to sensitize”. For the same compound, the pY37-H2B levels entry on WEE1 was “significant decrease”.

The values are drawn from US9594084B2, “Phosphorylation of histones and uses thereof” (H. LEE MOFFITT CANCER CENTER AND RESEARCH INSTITUTE, priority 2012, dated 2017).
